Paper PMC13608006 (Journal of medicinal chemistry, 2018)

How the values were obtained:
CV-B3 (CVB3-H3) = assay type: cell-based, coxsackievirus B3; conditions: for SI50 (CV-B3 in HeLa cells): SI50 = CC50/EC50
EV-A71 = assay: antiviral CPE assay, anti-EV-A71 in LLC cells; assay type: cell-based, enterovirus 71 (EV-A71); conditions: SI50 = CC50/EC50

Structure (SMILES)	SI50 (CV-B3 in HeLa cells) (CV-B3 (CVB3-H3))	SI50 (EV-A71 in LLC cells) (EV-A71)	antiviral activities against coxsackievirus B3 (CV-B3) (CV-B3 (CVB3-H3))
CC(C)n1ncc2c(C(=O)Nc3ccncn3)cc(-c3ccsc3)nc21 [JX059, 1-Isopropyl-N-(pyrimidin-4-yl)-6-(thiophen-3-yl)-1H-pyrazolo[3,4-b]pyridine-4-carboxamide]	SI50: >166.7	SI50: >250.0	–
CC(C)n1ncc2c(C(=O)Nc3ccccc3F)cc(-c3cncs3)nc21 [JX010, N-(2-Fluorophenyl)-1-isopropyl-6-(thiazol-5-yl)-1H-pyrazolo[3,4-b]pyridine-4-carboxamide]	SI50: >60.6	SI50: 27.0	–
CC(C)(C)n1ncc2c(C(=O)Nc3ccccc3F)cc(-c3cccs3)nc21 [JX013, 1-(tert-Butyl)-N-(2-fluorophenyl)-6-(thiophen-2-yl)-1H-pyrazolo[3,4-b]pyridine-4-carboxamide]	–	–	none of the above analogs demonstrated antiviral activities
CC(C)n1ncc2c(C(=O)Nc3cc(F)ccc3F)cc(-c3cccs3)nc21 [JX018, N-(2,5-Difluorophenyl)-1-isopropyl-6-(thiophen-2-yl)-1H-pyrazolo[3,4-b]pyridine-4-carboxamide]	SI50: >74.1	SI50: 28.6	–
O=C(Nc1ccc(F)cc1)c1cc(-c2cccs2)nc2c1cnn2C1CCCC1 [JX027, 1-Cyclopentyl-N-(4-fluorophenyl)-6-(thiophen-2-yl)-1H-pyrazolo[3,4-b]pyridine-4-carboxamide]	–	–	none of the above analogs demonstrated antiviral activities
O=C(Nc1ccc(F)cc1)c1cc(-c2cccs2)nc2c1cnn2C1CCCCC1 [JX028, 1-Cyclohexyl-N-(4-fluorophenyl)-6-(thiophen-2-yl)-1H-pyrazolo[3,4-b]pyridine-4-carboxamide]	–	–	none of the above analogs demonstrated antiviral activities
CC(C)n1ncc2c(C(=O)Nc3ncccn3)cc(-c3cccs3)nc21 [JX041, 1-Isopropyl-N-(pyrimidin-2-yl)-6-(thiophen-2-yl)-1H-pyrazolo[3,4-b]pyridine-4-carboxamide]	SI50: 62.5	SI50: 150.0	–
CC(C)n1ncc2c(C(=O)Nc3ncccn3)cc(-c3ccsc3)nc21 [JX058, 1-Isopropyl-N-(pyrimidin-2-yl)-6-(thiophen-3-yl)-1H-pyrazolo[3,4-b]pyridine-4-carboxamide]	SI50: 33.3	SI50: 41.7	–
CC(C)n1ncc2c(C(=O)Nc3ccccc3F)cc(-c3cccnc3)nc21 [JX005, N-(2-Fluorophenyl)-1-isopropyl-6-(pyridin-3-yl)-1H-pyrazolo[3,4-b]pyridine-4-carboxamide]	SI50: 5.4	–	–
CC(C)n1ncc2c(C(=O)Nc3ccc(F)cc3)cc(C3CC3)nc21 [JX038, 6-Cyclopropyl-N-(4-fluorophenyl)-1-isopropyl-1H-pyrazolo-[3,4-b]pyridine-4-carboxamide]	SI50: 3.0	SI50: 3.9	–
CC(C)n1ncc2c(C(=O)Nc3c(F)cccc3F)cc(-c3cccs3)nc21 [JX009, N-(2,6-Difluorophenyl)-1-isopropyl-6-(thiophen-2-yl)-1H-pyrazolo[3,4-b]pyridine-4-carboxamide]	SI50: >62.5	SI50: >58.8	–
CC(C)n1ncc2c(C(=O)Nc3ccccc3F)cc(-c3ccccn3)nc21 [JX004, N-(2-Fluorophenyl)-1-isopropyl-6-(pyridin-2-yl)-1H-pyrazolo[3,4-b]pyridine-4-carboxamide]	SI50: >29.0	–	–
CC(C)n1ncc2c(C(=O)Nc3c(F)cc(F)cc3F)cc(-c3cccs3)nc21 [JX020, 1-Isopropyl-6-(thiophen-2-yl)-N-(2,4,6-trifluorophenyl)-1H-pyrazolo[3,4-b]pyridine-4-carboxamide]	SI50: >111.1	SI50: >66.7	–
CC(C)n1ncc2c(C(=O)Nc3cccc(F)c3)cc(-c3cccs3)nc21 [JX021, N-(3-Fluorophenyl)-1-isopropyl-6-(thiophen-2-yl)-1H-pyrazolo[3,4-b]pyridine-4-carboxamide]	SI50: >250.0	SI50: >83.3	–
O=C(Nc1ccccc1F)c1cc(-c2cccs2)nc2c1cnn2C1CCC1 [JX014, 1-Cyclobutyl-N-(2-fluorophenyl)-6-(thiophen-2-yl)-1H-pyrazolo[3,4-b]pyridine-4-carboxamide]	–	–	none of the above analogs demonstrated antiviral activities
O=C(Nc1ccc(F)cc1)c1cc(-c2cccs2)nc2[nH]ncc12 [JX032, N-(4-Fluorophenyl)-6-(thiophen-2-yl)-1H-pyrazolo[3,4-b]-pyridine-4-carboxamide]	–	–	none of the above analogs demonstrated antiviral activities
CC(C)n1ncc2c(C(=O)Nc3ccc(F)cn3)cc(-c3cccs3)nc21 [JX075, N-(5-Fluoropyridin-2-yl)-1-isopropyl-6-(thiophen-2-yl)-1H-pyrazolo[3,4-b]pyridine-4-carboxamide]	SI50: 53.6	SI50: >166.7	–

Structure (SMILES)	SI50 (CV-B3 in HeLa cells) (CV-B3 (CVB3-H3))	SI50 (EV-A71 in LLC cells) (EV-A71)	antiviral activities against coxsackievirus B3 (CV-B3) (CV-B3 (CVB3-H3))
CC(C)n1ncc2c(C(=O)Nc3ccccn3)cc(C3CC3)nc21 [JX071, 6-Cyclopropyl-1-isopropyl-N-(pyridin-2-yl)-1H-pyrazolo[3,4-b]pyridine-4-carboxamide]	SI50: 5.3	SI50: 5.3	–
CC(C)n1ncc2c(C(=O)Nc3ccc(F)cc3)cc(-c3ccsc3)nc21 [JX030, N-(4-Fluorophenyl)-1-isopropyl-6-(thiophen-3-yl)-1H-pyrazolo[3,4-b]pyridine-4-carboxamide]	SI50: 19.2	SI50: >142.9	–
CC(C)n1ccc2c(C(=O)Nc3ccc(F)cc3)cc(-c3cccs3)nc21 [JX037, N-(4-Fluorophenyl)-1-isopropyl-6-(thiophen-2-yl)-1H-pyrrolo[2,3-b]pyridine-4-carboxamide]	SI50: 64.5	–	–
CC(C)n1ncc2c(C(=O)Nc3ccc(F)cc3)cc(-c3ccco3)nc21 [JX026, N-(4-Fluorophenyl)-6-(furan-2-yl)-1-isopropyl-1H-pyrazolo-[3,4-b]pyridine-4-carboxamide]	SI50: >83.0	SI50: >76.9	–
O=C(Nc1ccccc1F)c1cc(-c2cccs2)nc2c1cnn2-c1ccccc1 [JX012, N-(2-Fluorophenyl)-1-phenyl-6-(thiophen-2-yl)-1H-pyrazolo[3,4-b]pyridine-4-carboxamide]	–	–	none of the above analogs demonstrated antiviral activities
CC(C)n1ncc2c(C(=O)Nc3ccccn3)cc(-c3cccs3)nc21 [JX040, 1-Isopropyl-N-(pyridin-2-yl)-6-(thiophen-2-yl)-1H-pyrazolo-[3,4-b]pyridine-4-carboxamide]	SI50: >250.0	SI50: >400.0	–
O=C(Nc1ccc(F)cc1)c1cc(-c2cccs2)nc2c1cnn2C1CCCCCC1 [JX029, 1-Cycloheptyl-N-(4-fluorophenyl)-6-(thiophen-2-yl)-1H-pyrazolo[3,4-b]pyridine-4-carboxamide]	–	–	none of the above analogs demonstrated antiviral activities
CC(C)n1ncc2c(C(=O)Nc3ccccc3F)cc(-c3ccncc3)nc21 [JX003, N-(2-Fluorophenyl)-1-isopropyl-6-(pyridin-4-yl)-1H-pyrazolo[3,4-b]pyridine-4-carboxamide]	SI50: 7.4	–	–
CC(C)n1ncc2c(C(=O)Nc3ccccc3F)cc(-c3ccccc3)nc21 [JX002, N-(2-Fluorophenyl)-1-isopropyl-6-phenyl-1H-pyrazolo[3,4-b]pyridine-4-carboxamide]	SI50: 8.3	SI50: >35.1	–
CC(C)n1ncc2c(C(=O)Nc3ccncn3)cc(-c3cccs3)nc21 [JX043, 1-Isopropyl-N-(pyrimidin-4-yl)-6-(thiophen-2-yl)-1H-pyrazolo[3,4-b]pyridine-4-carboxamide]	SI50: 33.3	SI50: 100.0	–
CC(C)n1ncc2c(C(=O)Nc3ccc(F)c(S(N)(=O)=O)c3)cc(-c3cccs3)nc21 [JX069, N-(4-Fluoro-3-sulfamoylphenyl)-1-isopropyl-6-(thiophen-2-yl)-1H-pyrazolo[3,4-b]pyridine-4-carboxamide]	SI50: >181.8	SI50: 62.5	–
CC(C)n1ccc2c(C(=O)Nc3cccnc3)cc(-c3cccs3)nc21 [JX062, 1-Isopropyl-N-(pyridin-3-yl)-6-(thiophen-2-yl)-1H-pyrrolo-[2,3-b]pyridine-4-carboxamide]	SI50: 13.8	SI50: 31.3	–
CNS(=O)(=O)c1cccc(NC(=O)c2cc(-c3cccs3)nc3c2cnn3C(C)C)c1 [JX053, 1-Isopropyl-N-(3-(N-methylsulfamoyl)phenyl)-6-(thiophen-2-yl)-1H-pyrazolo[3,4-b]pyridine-4-carboxamide]	SI50: 24.0	SI50: 35.7	–
COc1ccc(Cn2ncc3c(C(=O)Nc4ccc(F)cc4)cc(-c4cccs4)nc32)cc1 [JX031, N-(4-Fluorophenyl)-1-(4-methoxybenzyl)-6-(thiophen-2-yl)-1H-pyrazolo[3,4-b]pyridine-4-carboxamide]	–	–	none of the above analogs demonstrated antiviral activities
O=C(Nc1ccccc1F)c1cc(-c2cccs2)nc2c1cnn2CC(F)(F)F [JX022, N-(2-Fluorophenyl)-6-(thiophen-2-yl)-1-(2,2,2-trifluoroethyl)-1H-pyrazolo[3,4-b]pyridine-4-carboxamide]	–	–	none of the above analogs demonstrated antiviral activities
CC(C)n1ncc2c(C(=O)Nc3ccc(F)c(F)c3)cc(-c3cccs3)nc21 [JX015, N-(3,4-Difluorophenyl)-1-isopropyl-6-(thiophen-2-yl)-1H-pyrazolo[3,4-b]pyridine-4-carboxamide]	SI50: >153.8	–	–
